Species: Rattus norvegicus
Assay: Open TG-GATES - Regimen: Single
Type: toxicity, organism-based, Sprague-Dawley
Set-up: regimen Single, gender Male, age 6 weeks
Details: in vivo, po, 300 mg/kg, route gavage, dose level Middle; for APTT / Bas / Eos / Fbg / Hb / Ht / Lym / MCH / MCHC / MCV / Mono / Neu / PT / Plat / RBC / Ret / WBC: tissue Blood; for KIDNEY_L / KIDNEY_R / KIDNEY_TOTAL: tissue Kidney; for LIVER: tissue Liver; for A/G / ALP / ALT / AST / BUN / CRE / Ca / Cl / DBIL / GLC / IP / K / LDH / Na / PL / RALB / TBIL / TC / TG / TP / gamma-GTP: tissue Plasma

## CCc1cc(C(N)=S)ccn1 [ETHIONAMIDE]
3 h
  TERMINAL_BW: 230.2 g
  APTT: 17.6 s
  Bas: 0%
  Eos: 1%
  Fbg: 208.2 mg/dL
  Hb: 13.7 g/dL
  Ht: 40.6%
  Lym: 79.4%
  MCH: 21.7 pg
  MCHC: 33.7%
  MCV: 64.3 fL
  Mono: 4.8%
  Neu: 15.4%
  PT: 12.5 s
  Plat: 121.1 x10_4/uL
  RBC: 631.4 x10_4/ul
  Ret: 7.4%
  WBC: 69.7 x10_2/uL
  KIDNEY_L: 1 g
  KIDNEY_R: 1.1 g
  KIDNEY_TOTAL: 2.1 g
  LIVER: 11.4 g
  A/G: 1.8
  ALP: 771 IU/L
  ALT: 30.2 IU/L
  AST: 62.8 IU/L
  BUN: 15.6 mg/dL
  CRE: 0.6 mg/dL
  Ca: 10.8 mg/dL
  Cl: 102 meq/L
  DBIL: 0.016 mg/dL
  GLC: 200 mg/dL
  IP: 9.6 mg/dL
  K: 4.2 meq/L
  LDH: 102.4 IU/L
  Na: 141.2 meq/L
  PL: 126.2 mg/dL
  RALB: 3.5 g/dL
  TBIL: 0.4 mg/dL
  TC: 70.4 mg/dL
  TG: 63 mg/dL
  TP: 5.5 g/dL
  gamma-GTP: 1.4 IU/L
6 h
  TERMINAL_BW: 225.7 g
  APTT: 18.3 s
  Bas: 0%
  Eos: 0.8%
  Fbg: 203 mg/dL
  Hb: 14.5 g/dL
  Ht: 43.1%
  Lym: 80.6%
  MCH: 21.8 pg
  MCHC: 33.6%
  MCV: 64.7 fL
  Mono: 6.4%
  Neu: 12.4%
  PT: 13.5 s
  Plat: 124 x10_4/uL
  RBC: 667 x10_4/ul
  Ret: 7.8%
  WBC: 112.6 x10_2/uL
  KIDNEY_L: 1 g
  KIDNEY_R: 1 g
  KIDNEY_TOTAL: 2 g
  LIVER: 10.7 g
  A/G: 2
  ALP: 845.6 IU/L
  ALT: 32.8 IU/L
  AST: 73.2 IU/L
  BUN: 18.4 mg/dL
  CRE: 0.5 mg/dL
  Ca: 11.3 mg/dL
  Cl: 104.2 meq/L
  DBIL: 0.008 mg/dL
  GLC: 188.6 mg/dL
  IP: 9.8 mg/dL
  K: 4.3 meq/L
  LDH: 135.2 IU/L
  Na: 140 meq/L
  PL: 122.8 mg/dL
  RALB: 3.7 g/dL
  TBIL: 0.5 mg/dL
  TC: 66 mg/dL
  TG: 34.2 mg/dL
  TP: 5.6 g/dL
  gamma-GTP: 1 IU/L
9 h
  TERMINAL_BW: 224 g
  APTT: 18.1 s
  Bas: 0%
  Eos: 1.4%
  Fbg: 208.6 mg/dL
  Hb: 14.2 g/dL
  Ht: 42.3%
  Lym: 68.8%
  MCH: 21.2 pg
  MCHC: 33.7%
  MCV: 63.1 fL
  Mono: 8.4%
  Neu: 21.4%
  PT: 14.4 s
  Plat: 119.7 x10_4/uL
  RBC: 669.8 x10_4/ul
  Ret: 7.6%
  WBC: 69.4 x10_2/uL
  KIDNEY_L: 1 g
  KIDNEY_R: 1 g
  KIDNEY_TOTAL: 1.9 g
  LIVER: 10.1 g
  A/G: 2
  ALP: 660.4 IU/L
  ALT: 31 IU/L
  AST: 72 IU/L
  BUN: 15.6 mg/dL
  CRE: 0.5 mg/dL
  Ca: 10.7 mg/dL
  Cl: 106 meq/L
  DBIL: 0.01 mg/dL
  GLC: 195.2 mg/dL
  IP: 10.3 mg/dL
  K: 4.2 meq/L
  LDH: 86.2 IU/L
  Na: 143 meq/L
  PL: 106.6 mg/dL
  RALB: 3.6 g/dL
  TBIL: 0.4 mg/dL
  TC: 57.2 mg/dL
  TG: 19.8 mg/dL
  TP: 5.5 g/dL
  gamma-GTP: 0.8 IU/L
24 h
  TERMINAL_BW: 231.6 g
  APTT: 17.5 s
  Bas: 0%
  Eos: 1%
  Fbg: 194.8 mg/dL
  Hb: 14.2 g/dL
  Ht: 42%
  Lym: 66.2%
  MCH: 21.7 pg
  MCHC: 33.7%
  MCV: 64.3 fL
  Mono: 10%
  Neu: 23.2%
  PT: 13.6 s
  Plat: 112.3 x10_4/uL
  RBC: 653.6 x10_4/ul
  Ret: 7.7%
  WBC: 95 x10_2/uL
  KIDNEY_L: 1.1 g
  KIDNEY_R: 1.1 g
  KIDNEY_TOTAL: 2.2 g
  LIVER: 11.3 g
  A/G: 1.9
  ALP: 1035.2 IU/L
  ALT: 50.4 IU/L
  AST: 81.6 IU/L
  BUN: 15 mg/dL
  CRE: 0.6 mg/dL
  Ca: 10.6 mg/dL
  Cl: 104.6 meq/L
  DBIL: 0.028 mg/dL
  GLC: 190.8 mg/dL
  IP: 7.9 mg/dL
  K: 4.5 meq/L
  LDH: 106.2 IU/L
  Na: 141 meq/L
  PL: 105.2 mg/dL
  RALB: 3.4 g/dL
  TBIL: 0.4 mg/dL
  TC: 49.8 mg/dL
  TG: 77 mg/dL
  TP: 5.2 g/dL
  gamma-GTP: 1.4 IU/L
